According to patent US7312233B2, “Amide derivatives as ion-channel ligands and pharmaceutical compositions and methods of using the same” (Renovis, Inc., priority 2005, dated 2007):

These compounds were tested against T1, HsVR1 (Homo sapiens, UniProt Q8NER1) (assay: Two-electrode voltage clamp recording (OpusXpress) of capsaicin induced VR1 current in Xenopus oocytes injected with HsVR1 RNA). Conditions: 250 nM capsaicin induced VR1 current, n=5 oocytes, FIG. 1.
T1 construct: expressed in transfected cells; host or cells: Xenopus oocytes injected with HsVR1 RNA
Type: cell-based
Description: Oocytes are prepared by surgically removing Xenopus ovaries obtained from NASCO. The oocytes are isolated by enzymatic dissociation using collagenase (Worthington, 2 mg/ml). Oocytes are then individually injected with HsVR1 RNA. Each oocyte receives 64 nl of RNA solution in water at a concentration of 0.5 μg/μl. Injected oocytes are stored in standard oocyte incubation solution, ND96, containing (in mM) 96 NaCl, 2 KCl, 1 MgCl2, 1.8 CaCl2 and 50 μg/ml Gentamicin at 16° C. […] Eight oocytes are placed in the recording chambers. Each oocyte is impaled by 2 glass electrodes having resistances of 0.5 to 1 MOhm when filled with a 3 M KCl solution. Electrode advancement and oocyte impalement are under software control (OpusXpress® 1.1 Molecular Devices Corporation). The solutions are prepared in 96 well plates and robotically pipetted into the oocyte recording chambers by an 8 channel pipettor. Test solution delivery to the oocytes during the experiment is also under software control. […] The standard test concentrations for the compounds tested here usually range from 0.3 to 2000 nM. Quantitative measurement of VR1 current block is done by calculating the area under the curve described by the inward current. […] These points are then plotted on a logarithmic scale and fitted by a Hill function. The IC50 is calculated from the resulting Hill fit.

T1 sequence (Q8NER1 whole entry): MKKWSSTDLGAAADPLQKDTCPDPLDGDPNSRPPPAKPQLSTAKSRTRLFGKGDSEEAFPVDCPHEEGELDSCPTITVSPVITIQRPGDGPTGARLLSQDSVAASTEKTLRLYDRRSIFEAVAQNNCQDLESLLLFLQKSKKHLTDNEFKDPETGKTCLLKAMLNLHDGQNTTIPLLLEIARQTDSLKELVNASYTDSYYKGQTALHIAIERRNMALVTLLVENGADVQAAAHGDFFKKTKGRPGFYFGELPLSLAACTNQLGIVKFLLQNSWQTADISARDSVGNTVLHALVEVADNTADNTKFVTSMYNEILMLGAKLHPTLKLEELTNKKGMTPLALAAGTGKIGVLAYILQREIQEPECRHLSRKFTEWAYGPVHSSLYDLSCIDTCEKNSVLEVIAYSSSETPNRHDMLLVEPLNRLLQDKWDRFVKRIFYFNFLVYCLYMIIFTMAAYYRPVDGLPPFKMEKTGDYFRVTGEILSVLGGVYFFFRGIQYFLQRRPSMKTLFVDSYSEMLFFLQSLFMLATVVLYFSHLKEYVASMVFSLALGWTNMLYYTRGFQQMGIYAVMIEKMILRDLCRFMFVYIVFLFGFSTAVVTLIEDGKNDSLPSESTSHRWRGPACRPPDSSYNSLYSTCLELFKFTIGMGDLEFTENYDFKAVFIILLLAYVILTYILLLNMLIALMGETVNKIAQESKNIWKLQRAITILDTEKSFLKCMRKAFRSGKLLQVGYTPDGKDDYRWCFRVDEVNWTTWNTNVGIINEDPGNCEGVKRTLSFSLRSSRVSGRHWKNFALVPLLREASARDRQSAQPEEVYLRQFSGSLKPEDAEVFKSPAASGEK

Row | Structure (SMILES) | IC50 [nM]
1 | Cc1nc2cc(NC(=O)c3ccc(C4CC4)cc3C)ccc2s1 [Compound 7, 4-cyclopropyl-2-methyl-N-(2-methylbenzo[d]thiazol-5-yl)benzamide] | 178 ± 26

Same assay, conditions: +/- standard error measurement, FIG. 1 legend

Row | Structure (SMILES) | IC50 [nM]
2 | Cc1nc2cc(NC(=O)c3ccc(C4CC4)cc3C)ccc2s1 [Compound 7, 4-cyclopropyl-2-methyl-N-(2-methylbenzo[d]thiazol-5-yl)benzamide] | 177

These compounds were tested against T2, hVR1 (Homo sapiens, UniProt Q8NER1) (assay: Calcium uptake assay (Fura2, Flex Station) in HEK 293 cells expressing hVR1). Conditions: 0.3 μM compound, inhibition of agonist-induced calcium influx, 0.3 µM.
T2 construct: expressed in transfected cells; host or cells: T-REx HEK 293 (Invitrogen), pcDNA5/TO vector
Type: cell-based

T2 sequence (Q8NER1 whole entry): as above

Row | Structure (SMILES) | % Inhib. @ 0.3 μM
3 | Cc1cc(C2CC2C(F)(F)F)ccc1C(=O)Nc1ccc2c(c1)OCCO2 (single isomer, unassigned) [Compound 8, N-(2,3-dihydrobenzo[b][1,4]dioxin-6-yl)-2-methyl-4-(2-(trifluoromethyl)cyclopropyl)benzamide] | + (compound exhibited 0-25% inhibition of calcium ion influx)
4 | Cc1cc(C2CC2C(F)(F)F)ccc1C(=O)Nc1cnc2ccccc2c1 (single isomer, unassigned) [Compound 17, 2-methyl-N-(quinolin-3-yl)-4-(2-(trifluoromethyl)cyclopropyl)benzamide] | +++ (compound exhibited 50-75% inhibition of calcium ion influx)
5 | Cc1cc(C2CC2C(F)(F)F)ccc1C(=O)Nc1cnc2ccccc2c1 (single isomer, unassigned) [Compound 18, 2-methyl-N-(quinolin-3-yl)-4-(2-(trifluoromethyl)cyclopropyl)benzamide] | +++ (compound exhibited 50-75% inhibition of calcium ion influx)
6 | Cc1cc(C2CC2C(F)(F)F)ccc1C(=O)Nc1ccc2c(c1)OCCO2 (single isomer, unassigned) [Compound 13, N-(2,3-dihydrobenzo[b][1,4]dioxin-6-yl)-2-methyl-4-(2-(trifluoromethyl)cyclopropyl)benzamide] | +++ (compound exhibited 50-75% inhibition of calcium ion influx)
7 | Cc1cc(C2CC2C(F)(F)F)ccc1C(=O)Nc1cnc2ccccc2c1 (single isomer, unassigned) [Compound 20, 2-methyl-N-(quinolin-3-yl)-4-(2-(trifluoromethyl)cyclopropyl)benzamide] | ++ (compound exhibited 25-50% inhibition of calcium ion)
8 | Cc1cc(C2CC2C(F)(F)F)ccc1C(=O)Nc1cnc2ccccc2c1 (single isomer, unassigned) [Compound 19, 2-methyl-N-(quinolin-3-yl)-4-(2-(trifluoromethyl)cyclopropyl)benzamide] | + (compound exhibited 0-25% inhibition of calcium ion influx)

Same assay, conditions: HEK293, 0.3 μM compound, inhibition of agonist-induced calcium influx, read-out: % Inhib. @ 0.3 μM

Row | Structure (SMILES) | inhibition at 0.3 µM [%]
9 | Cc1cc(C2CC2C(F)(F)F)ccc1C(=O)Nc1ccc2sc(CO)nc2c1 (single isomer, unassigned) [Compound 15] | > 75
10 | Cc1nc2cc(NC(=O)c3ccc(C4CC4(Cl)Cl)cc3)ccc2s1 (centres unmarked) [Compound 6, 4-(2,2-dichlorocyclopropyl)-N-(2-methylbenzo[d]thiazol-5-yl)benzamide] | > 75
11 | Cc1cc(C2CC2)ccc1C(=O)Nc1ccc(C(C)(C)C)cc1 [Compound 2, N-(4-tert-butylphenyl)-4-cyclopropyl-2-methylbenzamide] | 0 to 25
12 | COc1ccc(NC(=O)c2ccc(C3CC3C(F)(F)F)cc2C)cn1 (single isomer, unassigned) [Compound 10, N-(6-methoxypyridin-3-yl)-2-methyl-4-(2-(trifluoromethyl)cyclopropyl)benzamide] | 25 to 50
13 | COc1cccc(NC(=O)c2ccc(C3CC3)cc2C)c1 [Compound 1, 4-cyclopropyl-N-(3-methoxyphenyl)-2-methylbenzamide] | 50 to 75
14 | Cc1cc(C2CC2)ccc1C(=O)Nc1cnc2ccccc2c1 [Compound 5, 4-cyclopropyl-2-methyl-N-(quinolin-3-yl)benzamide] | > 75
15 | COc1cccc(NC(=O)c2ccc(C3CC3C(F)(F)F)cc2C)c1 (single isomer, unassigned) [Compound 16, N-(3-methoxyphenyl)-2-methyl-4-(2-(trifluoromethyl)cyclopropyl)benzamide] | 25 to 50
16 | Cc1cc(C2CC2C(F)(F)F)ccc1C(=O)Nc1cccc2c1CCCC2 (single isomer, unassigned) [Compound 9, 2-methyl-N-(5,6,7,8-tetrahydronaphthalen-1-yl)-4-(2-(trifluoromethyl)cyclopropyl)benzamide] | 0 to 25
17 | COc1cccc(NC(=O)c2ccc(C3CC3(Cl)Cl)cc2)c1 (centres unmarked) [Compound 4, 4-(2,2-dichlorocyclopropyl)-N-(3-methoxyphenyl)benzamide] | > 75
18 | Cc1nc2cc(NC(=O)c3ccc(C4CC4C(F)(F)F)cc3C)ccc2s1 (single isomer, unassigned) [Compound 11, 2-methyl-N-(2-methylbenzo[d]thiazol-5-yl)-4-(2-(trifluoromethyl)cyclopropyl)benzamide] | > 75
19 | O=C(Nc1cnc2ccccc2c1)c1ccc(C2CC2(Cl)Cl)cc1 (centres unmarked) [Compound 3, 4-(2,2-dichlorocyclopropyl)-N-(quinolin-3-yl)benzamide] | 50 to 75
20 | Cc1nc2cc(NC(=O)c3ccc(C4CC4)cc3C)ccc2s1 [Compound 7, 4-cyclopropyl-2-methyl-N-(2-methylbenzo[d]thiazol-5-yl)benzamide] | > 75
